Test results as given in patent publication US10259810B2, “N-sulfonylated pyrazolo[3,4-b]pyridin-6-carboxamides and method of use” (AbbVie S.à.r.l., priority 2015, dated 2019).
Read-outs that look alike come from different tables or passages of the source.

Target: T1, ΔF508-CFTR (Homo sapiens, UniProt P13569, DEL508-508)
T1 construct: host or cells: CFBE41o-, doxycycline-inducible
Assay: CFTR cell surface levels using HRP-tagged ΔF508-CFTR expressing CFBE cells, in the presence of a co-corrector
Format: cell-based
From the text: Measuring CFTR Cell Surface Levels Using HRP-Tagged ΔF508-CFTR Expressing CFBE Cells
The HRP-tagged ΔF508-CFTR cell assay measures the expression of CFTR-ΔF508 at the plasma membrane. CFTR-ΔF508 has a folding defect leading to absence of protein at the plasma membrane. This assay is used to evaluate the capacity of compounds to increase the expression of CFTR-ΔF508 at the plasma membrane. The CFTR-ΔF508 is tagged with HRP (horse radish peroxidase enzyme) within the ECL4 (Extracellular loop 4) of CFTR (Phuan, P.-W. et al. Synergy-based small-molecule screen using a human lung epithelial cell line yields ΔF508-CFTR correctors that augment VX-809 maximal efficacy. Mol. Pharmacol. 86, 42-51 (2014)). When HRP-tagged ΔF508-CFTR is present at the plasma membrane, the HRP enzyme activity can be measured. The amount of CFTR-ΔF508 that can be rescued to the plasma membrane is correlated with the amount of functional enzyme that can be measured.
There are several ways to measure the capacity of compounds to rescue CFTR-ΔF508 to the plasma membrane; either compounds are evaluated on their own and the impact on plasma membrane levels is measured or compounds are evaluated in combination with a co-corrector, i.e. a compound that rescues CFTR-ΔF508 to the plasma membrane but rescue can be enhanced by addition of compounds due to a complementary mode of action.
Activity of Compounds in Combination with Co-Corrector:
For this purpose doxycycline-inducible ΔF508-CFTR-HRP expressing CFBE4lo− cells (obtained from Gergely Lukacs, McGill University) were maintained in MEM (Minimum Essential Medium, Gibco; 31095) supplemented with 10% fetal bovine serum (Hyclone; SV30160.03) under puromycin (3 μg/mL) and G418 selection (0.2 mg/mL). For compound testing, cells were seeded at 4000 cells/well in white 384-well plates (Greiner; 781080) in 50 μL of medium containing 0.5 μg/mL doxycycline and incubated for 68 hours at 37° C., 5% CO2. On day four, 10 μL of test compounds diluted in PBS (phosphate buffered saline) were added to the plates at a final DMSO concentration of 0.1%. In order to measure compound synergy with a co-corrector, 3 μM co-corrector (3-[(2R,4R)-4-({[1-(2,2-difluoro-1,3-benzodioxol-5-yl)cyclopropyl]carbonyl}amino)-7-methoxy-3,4-dihydro-2H-chromen-2-yl]benzoic acid) was added along with test compounds. All compound plates contained negative controls (DMSO) and positive controls (3 μM co-corrector). Cell plates were incubated at 33° C., 5% CO2 for 20 hours. On day five, the cells were washed five times with phosphate-buffered saline, and HRP activity was assayed by the addition of 50 μL/well of HRP substrate (SuperSignal™ West Pico Chemiluminescent Substrate, Thermo Scientific; 34080). After incubation for 15 minutes in the dark, the chemiluminescence was measured using a plate reader (EnVision®, Perkin Elmer). Raw data were normalized to percentage activity values using the equation: 100×(Sample−Negative control)/(Positive control−Negative Control).

[1] = HRP-tagged ΔF508-CFTR CFBE cells, in the presence of 3 μM co-corrector
[2] = HRP-tagged ΔF508-CFTR CFBE cells, in the presence of 3 μM co-corrector, read-out: EC50

T1 sequence (P13569 with tags, fused parts or gaps DEL508-508): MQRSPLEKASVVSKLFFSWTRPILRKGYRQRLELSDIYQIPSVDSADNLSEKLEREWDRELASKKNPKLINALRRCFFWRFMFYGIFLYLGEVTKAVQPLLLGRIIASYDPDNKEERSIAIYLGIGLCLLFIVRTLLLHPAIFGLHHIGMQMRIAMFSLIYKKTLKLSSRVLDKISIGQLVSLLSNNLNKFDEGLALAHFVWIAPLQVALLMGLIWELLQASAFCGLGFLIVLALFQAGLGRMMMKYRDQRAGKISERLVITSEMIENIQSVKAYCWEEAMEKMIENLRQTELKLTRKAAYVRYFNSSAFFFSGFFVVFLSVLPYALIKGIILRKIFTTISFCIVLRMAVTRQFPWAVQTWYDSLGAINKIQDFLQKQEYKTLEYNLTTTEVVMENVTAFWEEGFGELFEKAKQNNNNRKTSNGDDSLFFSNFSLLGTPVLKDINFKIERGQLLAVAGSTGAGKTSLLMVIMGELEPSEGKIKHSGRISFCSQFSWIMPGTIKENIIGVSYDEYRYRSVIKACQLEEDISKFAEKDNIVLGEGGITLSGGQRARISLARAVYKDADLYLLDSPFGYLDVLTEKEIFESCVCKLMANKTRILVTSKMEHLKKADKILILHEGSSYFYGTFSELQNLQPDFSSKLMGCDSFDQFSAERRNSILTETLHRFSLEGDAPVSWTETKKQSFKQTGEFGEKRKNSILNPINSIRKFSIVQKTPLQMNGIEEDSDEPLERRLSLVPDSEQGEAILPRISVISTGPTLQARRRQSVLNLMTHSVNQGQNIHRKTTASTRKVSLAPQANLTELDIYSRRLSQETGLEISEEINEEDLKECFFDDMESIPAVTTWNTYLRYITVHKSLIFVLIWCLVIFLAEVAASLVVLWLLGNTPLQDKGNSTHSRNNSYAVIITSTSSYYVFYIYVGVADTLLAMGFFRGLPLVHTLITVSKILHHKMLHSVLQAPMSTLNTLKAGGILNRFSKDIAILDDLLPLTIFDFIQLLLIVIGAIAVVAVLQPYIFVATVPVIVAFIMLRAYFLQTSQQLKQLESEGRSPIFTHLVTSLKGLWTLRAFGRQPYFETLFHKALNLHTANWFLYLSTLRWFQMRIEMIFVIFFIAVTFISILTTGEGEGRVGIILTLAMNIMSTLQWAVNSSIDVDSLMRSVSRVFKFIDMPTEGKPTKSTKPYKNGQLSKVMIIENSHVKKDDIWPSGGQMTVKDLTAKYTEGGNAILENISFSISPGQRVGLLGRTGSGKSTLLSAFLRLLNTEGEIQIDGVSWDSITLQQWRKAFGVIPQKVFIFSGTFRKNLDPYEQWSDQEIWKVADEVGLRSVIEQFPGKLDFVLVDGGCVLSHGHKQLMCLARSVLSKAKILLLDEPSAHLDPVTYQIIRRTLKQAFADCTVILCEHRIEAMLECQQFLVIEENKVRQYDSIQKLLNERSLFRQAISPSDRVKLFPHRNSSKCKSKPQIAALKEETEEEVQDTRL

| SMILES | % Activation [1] | EC50 [2] | EC50 |
| --- | --- | --- | --- |
| Cc1nn(-c2ccccc2)c2nc(C(=O)NS(C)(=O)=O)cc(-c3ccc(N4CCOCC4)cc3)c12 [Compound 1, N-(methanesulfonyl)-3-methyl-4-[4-(morpholin-4-yl)phenyl]-1-phenyl-1H-pyrazolo[3,4-b]pyridine-6-carboxamide] | 297.2% | 1.19 µM | – |
| CCS(=O)(=O)NC(=O)c1cc(-c2ccc(N3CCOCC3)cc2)c2c(C)nn(-c3ccccc3)c2n1 [Compound 5, N-(ethanesulfonyl)-3-methyl-4-[4-(morpholin-4-yl)phenyl]-1-phenyl-1H-pyrazolo[3,4-b]pyridine-6-carboxamide] | 362.75% | 0.372 µM | – |
| COCC1CCN(c2cc(C(=O)NS(=O)(=O)CCC(=O)OC)nc3c2c(C2CCC2)nn3-c2ccccc2)CC1 [Compound 288, methyl 3-({3-cyclobutyl-4-[4-(methoxymethyl)piperidin-1-yl]-1-phenyl-1H-pyrazolo[3,4-b]pyridine-6-carbonyl}sulfamoyl)propanoate] | 566.4% | 0.0743 µM | – |
| COCC1CCN(c2cc(C(=O)NS(=O)(=O)CCC(=O)O)nc3c2c(C2CCC2)nn3-c2ccccc2)CC1 [Compound 289, 3-({3-cyclobutyl-4-[4-(methoxymethyl)piperidin-1-yl]-1-phenyl-1H-pyrazolo[3,4-b]pyridine-6-carbonyl}sulfamoyl)propanoic Acid] | 366.4% | 3.33 µM | – |
| COCCN(C)c1cc(C(=O)NS(C)(=O)=O)nc2c1c(C(C)C)nn2-c1ccc(F)cc1 [Compound 301, 1-(4-fluorophenyl)-N-(methanesulfonyl)-4-[(2-methoxyethyl)(methyl)amino]-3-(propan-2-yl)-1H-pyrazolo[3,4-b]pyridine-6-carboxamide] | 376.6% | 1.14 µM | – |
| COCC1CCN(c2cc(C(=O)NS(=O)(=O)CCCN3CCC3)nc3c2c(C(C)C)nn3-c2ccc(F)cc2)CC1 [Compound 302, N-[3-(azetidin-1-yl)propane-1-sulfonyl]-1-(4-fluorophenyl)-4-[4-(methoxymethyl)piperidin-1-yl]-3-(propan-2-yl)-1H-pyrazolo[3,4-b]pyridine-6-carboxamide] | 401.45% | 1.8 µM | – |
| CC(C)c1nn(-c2ccc(F)cc2)c2nc(C(=O)NS(C)(=O)=O)cc(OCCC3CCCCN3C)c12 (stereo not shown) [Compound 305, 1-(4-fluorophenyl)-N-(methanesulfonyl)-4-[2-(1-methylpiperidin-2-yl)ethoxy]-3-(propan-2-yl)-1H-pyrazolo[3,4-b]pyridine-6-carboxamide] | 267% | 2.44 µM | – |
| CC(=O)N1CCC(F)(COc2cc(C(=O)NS(C)(=O)=O)nc3c2c(C(C)C)nn3-c2ccc(F)cc2)CC1 [Compound 308, 4-[(1-acetyl-4-fluoropiperidin-4-yl)methoxy]-1-(4-fluorophenyl)-N-(methanesulfonyl)-3-(propan-2-yl)-1H-pyrazolo[3,4-b]pyridine-6-carboxamide] | 328.85% | 2.49 µM | – |
| COCC(COC)Oc1cc(C(=O)NS(C)(=O)=O)nc2c1c(C(C)C)nn2-c1ccc(F)cc1 [Compound 311, 4-[(1,3-dimethoxypropan-2-yl)oxy]-1-(4-fluorophenyl)-N-(methanesulfonyl)-3-(propan-2-yl)-1H-pyrazolo[3,4-b]pyridine-6-carboxamide] | 241.35% | 1.06 µM | – |
| CC(C)c1nn(-c2ccc(F)cc2)c2nc(C(=O)NS(C)(=O)=O)cc(OCC3COCCO3)c12 (stereo not shown) [Compound 312, 4-[(1,4-dioxan-2-yl)methoxy]-1-(4-fluorophenyl)-N-(methanesulfonyl)-3-(propan-2-yl)-1H-pyrazolo[3,4-b]pyridine-6-carboxamide] | 291.5% | 1.88 µM | – |
| CC(C)c1nn(-c2ccc(F)cc2)c2nc(C(=O)NS(C)(=O)=O)cc(OCCOC3COC3)c12 [Compound 313, 1-(4-fluorophenyl)-N-(methanesulfonyl)-4-{2-[(oxetan-3-yl)oxy]ethoxy}-3-(propan-2-yl)-1H-pyrazolo[3,4-b]pyridine-6-carboxamide] | 319.75% | 1.75 µM | – |
| CS(=O)(=O)NC(=O)c1cc(OCCCN2CCCCC2)c2c(C3CCC3)nn(-c3ccccc3)c2n1 [Compound 314, 3-cyclobutyl-N-(methanesulfonyl)-1-phenyl-4-[3-(piperidin-1-yl)propoxy]-1H-pyrazolo[3,4-b]pyridine-6-carboxamide] | 375.8% | 0.693 µM | – |
| CC(=O)N1CCC(COc2cc(C(=O)NS(C)(=O)=O)nc3c2c(C(C)C)nn3-c2ccc(F)cc2)CC1 [Compound 321, 4-[(1-acetylpiperidin-4-yl)methoxy]-1-(4-fluorophenyl)-N-(methanesulfonyl)-3-(propan-2-yl)-1H-pyrazolo[3,4-b]pyridine-6-carboxamide] | 314.37% | 0.497 µM | – |
| COCC(COC)Oc1cc(C(=O)NS(C)(=O)=O)nc2c1c(C1CCC1)nn2-c1ccccc1 [Compound 324, 3-cyclobutyl-4-[(1,3-dimethoxypropan-2-yl)oxy]-N-(methanesulfonyl)-1-phenyl-1H-pyrazolo[3,4-b]pyridine-6-carboxamide] | 259.7% | 1.64 µM | – |
| CC(=O)N1CC[C@@H]2CN(c3cc(C(=O)NS(=O)(=O)CCCN4CCOCC4)nc4c3c(C3CCC3)nn4-c3ccccc3)CC[C@@H]21 [Compound 332, 4-[(3aR,7aS)-1-acetyloctahydro-5H-pyrrolo[3,2-c]pyridin-5-yl]-3-cyclobutyl-N-[3-(morpholin-4-yl)propane-1-sulfonyl]-1-phenyl-1H-pyrazolo[3,4-b]pyridine-6-carboxamide] | 448.25% | – | 0.624 µM |
| CC(C)c1nn(-c2ccc(F)cc2)c2nc(C(=O)NS(C)(=O)=O)cc(N3CCC4(CC3)CN(C)C(=O)O4)c12 [Compound 338, 1-(4-fluorophenyl)-N-(methanesulfonyl)-4-(3-methyl-2-oxo-1-oxa-3,8-diazaspiro[4.5]decan-8-yl)-3-(propan-2-yl)-1H-pyrazolo[3,4-b]pyridine-6-carboxamide] | 344.25% | 0.946 µM | – |
| CC(C)c1nn(-c2ccc(F)cc2)c2nc(C(=O)NS(C)(=O)=O)cc(N3CCC4(CC3)NC(=O)NC4=O)c12 [Compound 341, 4-(2,4-dioxo-1,3,8-triazaspiro[4.5]decan-8-yl)-1-(4-fluorophenyl)-N-(methanesulfonyl)-3-(propan-2-yl)-1H-pyrazolo[3,4-b]pyridine-6-carboxamide] | 165.4% | 3.33 µM | – |
| CCOCC1(F)CCN(c2cc(C(=O)NS(C)(=O)=O)nc3c2c(C(C)C)nn3-c2ccc(F)cc2)CC1 [Compound 342, 4-[4-(ethoxymethyl)-4-fluoropiperidin-1-yl]-1-(4-fluorophenyl)-N-(methanesulfonyl)-3-(propan-2-yl)-1H-pyrazolo[3,4-b]pyridine-6-carboxamide] | 336.5% | 0.207 µM | – |
| COCCOCC1(F)CCN(c2cc(C(=O)NS(C)(=O)=O)nc3c2c(C(C)C)nn3-c2ccc(F)cc2)CC1 [Compound 343, 4-{4-fluoro-4-[(2-methoxyethoxy)methyl]piperidin-1-yl}-1-(4-fluorophenyl)-N-(methanesulfonyl)-3-(propan-2-yl)-1H-pyrazolo[3,4-b]pyridine-6-carboxamide] | 356.9% | 0.566 µM | – |
| CC(C)c1nn(-c2ccc(F)cc2)c2nc(C(=O)NS(C)(=O)=O)cc(N3CC[C@@H](O)[C@H](F)C3)c12 [Compound 344, 4-[(3R,4R)-3-fluoro-4-hydroxypiperidin-1-yl]-1-(4-fluorophenyl)-N-(methanesulfonyl)-3-(propan-2-yl)-1H-pyrazolo[3,4-b]pyridine-6-carboxamide] | 374.5% | 1.06 µM | – |
